From PubChem BioAssay AID2060512 (Molecular Pharmacology Branch, DTP, NCI, 2025) come the findings set out here.

“And” between values parts separate entries of the source, which are not always exact repeats. Equal entries are not always repeated.

The viability, T/C is the ratio of treated to control. What is called IC50 is the midpoint of a concentration-inhibition curve.

This experiment relates to 186277-243-T-J2-PDC complex spheroid viability. Put plainly: Anticancer human tumor 186277-243-T-J2-PDC patient-derived colon adenocarcinoma cell line growth inhibition [GQUAD]. The conditions noted are these: for viability, T/C: stronger effect = lower value; for IC50: curve of compound. The source says:
DNA G-quadruplex Stabilizer Agents in Combinations in Complex Spheroids
A high-throughput screen of multi-cell type tumor spheroids was designed to identify active combinations of DNA G-quadruplex stabilizer agents and targeted small molecules. Complex spheroids include a stromal component modeled by human endothelial cells (HUVEC) and fibroblasts modeled by human mesenchymal stem cells (MSCs). The concentration ranges selected for each drug and investigational agent were based upon clinically achievable concentrations if the clinical Cmax of the agent was known.
Compounds. The drugs and investigational agents: pidnarulex (CX-5461; NSC782164), APTO-253 (NSC789042), BRACO-19 (NSC847499), peposertib (NSC802822), ceralasertib (NSC780249), elimusertib (NSC800525), camonsertib (NSC841442), AZD-1390 (NSC803789), olaparib (NSC753686), talazoparib (NSC767125), ART-558 (NSC835418), sotorasib (NSC818433), MRTX-1133 (NSC836407), SN-38 (NSC673596), topotecan (NSC609699), etoposide (NSC141540), doxorubicin (NSC123127), gemcitabine (NSC613327), 5-fluorouracil (NSC19893), paclitaxel (NSC125973), vemurafenib (NSC761431), panobinostat (NSC761190), R-306465 (JNJ-16241199; NSC773264), adavosertib (NSC754352), TP-3654 (NSC805149), carboplatin (NSC241240), KSQ-4279 (NSC840948), and staurosporine (NSC755774) were obtained from the National Cancer Institute (NCI) Developmental Therapeutics Program Chemical Repository (34). The FDA-approved anticancer drug set is available from the NCI Developmental Therapeutics Program. […] The stock solutions were prepared in dimethyl sulfoxide (DMSO, Sigma-Aldrich, St. Louis, MO, cat. D2650) at 800-fold the tested concentration and stored at -70 degrees C prior to their use. All drugs and investigational agents were tested over a range starting from a high concentration at or near the clinical Cmax and decreasing in half-log increments. If the clinical Cmax for an agent had not been determined, the highest concentration tested was 10 microM.
2.3 Cell Culture. All cells were maintained in an incubator at 37 degrees C and 5% CO2 with 95% humidity. The PDC lines were cultured according to standard operating procedures established by the NCI PDMR. All PDCs were thawed and cultured in Matrigel-coated flasks prepared with a working solution of 1X Ham's F-12 nutrient mix, without supplementation (Invitrogen, cat. 11765054), 100 U/mL penicillin-streptomycin (Invitrogen, cat. 15140122), and 2.5% Matrigel (Corning Inc., cat. 354248) for the first three passages. The 857933-349-R-J2-PDC line was cultured in 6C/Colon 1B media, which includes advanced DMEM/F-12 (Thermo Fisher Scientific, cat. 12634028), 10 mM HEPES (Thermo Fisher Scientific, cat. 15630080), 1X GlutaMAX supplement (Thermo Fisher Scientific, cat. 35050061), 0.1 mg/mL primocin (InvivoGen, cat. ant-pm-2), 10% defined fetal bovine serum, heat inactivated (HyClone Laboratories Inc., cat. SH30070.03HI), 50% L-WRN conditioned media (ATCC, cat. CRL-3276), 1.25 mM N-Acetyl-L-cysteine (Sigma-Aldrich, cat. A9165), 10 mM nicotinamide (Sigma-Aldrich, cat. N0636), 1X B-27 supplement (Thermo Fisher Scientific, cat. 17504044), 1X N-2 supplement (Thermo Fisher Scientific, cat. 17502048), 10 microM Y-27632 dihydrochloride (Tocris Bioscience, cat. 1254), and 50 ng/mL human EGF recombinant protein (Thermo Fisher Scientific, cat. PHG0311). The 485176-168-R4-J1-PDC line was cultured in Panc media, which includes all 6C/Colon 1B media components plus 100 ng/mL human FGF-10 (Thermo Fisher Scientific, cat. 100-26), 500 nM SB-431542 (Selleckchem, cat. S1067), and gastrin (Tocris, cat. 3006).
[…]
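Note: spheroids exposed to drugs for 7 days.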

As to `C#Cc1c(F)ccc2cc(O)cc(-c3ncc4c(N5CC6CCC(C5)N6)nc(OCC56CCCN5CC(F)C6)nc4c3F)c12` (stereo not given), the IC50 was 137 nM and 70.6 nM and 77.1 nM. Also, the viability, T/C (compound 0.0316 µM) was 99.9% and 94.8% and 64%. Besides, the viability, T/C (compound 0.1 µM) is 59.1% and 30.1% and 46.2%. Further, the viability, T/C (compound 0.316 µM) is 26% and 13.2% and 19.2%. In addition, the viability, T/C (compound 1 µM) was 14.4% and 7.76% and 10.2%. The viability, T/C (compound 3.16 µM) was 17.8% and 7.17% and 7.07%. The viability, T/C (compound 10 µM) was 10.2% and 5.44% and 5.48%.

On to `C=CC(=O)N1CCN(c2nc(=O)n(-c3c(C)ccnc3C(C)C)c3nc(-c4c(O)cccc4F)c(F)cc23)C(C)C1` (stereo not given), for which the 50% inhibitory concentration (IC50) is more than 10000 nM. Besides, under “compound 0.0316 µM”, the viability, T/C is 91.3% and 93.7% and 101%. The viability, T/C (compound 0.1 µM) was 82.3% and 102% and 89.8%. Moreover, the viability, T/C (compound 0.316 µM) was 94% and 91.1% and 104%. The viability, T/C (compound 1 µM) is 108% and 96.1% and 91.2%. Also, for the setting “compound 3.16 µM”, the viability, T/C was 92.6% and 117% and 98%. For the same compound, the viability, T/C (compound 10 µM) was 87.6% and 78.8% and 95.7%.

As to `CC(=O)O[C@H]1C(=O)[C@@]2(C)[C@H]([C@H](OC(=O)c3ccccc3)[C@]3(O)C[C@H](OC(=O)[C@H](O)[C@@H](NC(=O)c4ccccc4)c4ccccc4)C(C)=C1C3(C)C)[C@]1(OC(C)=O)CO[C@@H]1C[C@@H]2O`, the IC50 was less than 31.6 nM. Further, the viability, T/C (compound 0.0316 µM) is 11.9% and 17.4% and 29%. Moreover, the viability, T/C (compound 0.1 µM) was 4.45% and 7.62% and 9.72%. Moreover, the viability, T/C (compound 0.316 µM) was 5.05% and 6.94% and 9.26%. Also, for the setting “compound 1 µM”, the viability, T/C is 5.03% and 4.51% and 8.19%. Moreover, where the note is “compound 3.16 µM”, the viability, T/C was 4.85% and 4.62% and 5.67%. Also, the viability, T/C (compound 10 µM) is 4.7% and 4.26% and 6.48%.

Take `CC(C)n1c(=O)n(C)c2cnc3cc(F)c(-c4ccc(OCCCN5CCCCC5)nc4)cc3c21`: the half-maximal inhibitory concentration (IC50) was more than 10000 nM. In addition, where the note is “compound 0.0316 µM”, the viability, T/C was 99.3% and 98.7% and 80.8%. Moreover, the viability, T/C (compound 0.1 µM) is 90.1% and 89.8% and 84.8%. Also, the viability, T/C (compound 0.316 µM) is 106% and 104% and 82.1%. Moreover, the viability, T/C (compound 1 µM) was 96.6% and 119% and 84.2%. Also, the viability, T/C (compound 3.16 µM) is 104% and 106% and 97.2%. Besides, where the note is “compound 10 µM”, the viability, T/C was 89.4% and 101% and 76%.

`CC1COCCN1c1cc(-c2ccnn2C)c2ccnc(-c3ccn[nH]3)c2n1` (stereo not given): the half-inhibitory concentration (IC50) was 53.3 nM and 48.9 nM and 44.7 nM. The viability, T/C (compound 0.0316 µM) was 81.1% and 73.3% and 66.4%. Besides, the viability, T/C (compound 0.1 µM) is 12.5% and 11.9% and 12.3%. In addition, the viability, T/C (compound 0.316 µM) was 7.41% and 7.05% and 7.85%. Further, under “compound 1 µM”, the viability, T/C was 5.96% and 5.12% and 5.67%. Also, the viability, T/C (compound 3.16 µM) was 5.8% and 4.75% and 4.94%. For the setting “compound 10 µM”, the viability, T/C was 7.05% and 4.45% and 5.66%.

Turning to `CC1COCCN1c1cc(C2(O)CC3CCC(C2)O3)c2cnn(-c3ccn[nH]3)c2n1` (stereo not given), the IC50 is 43.7 nM and 45.3 nM and 33.4 nM. Besides, the viability, T/C (compound 0.0316 µM) is 64.6% and 66.1% and 52.2%. Moreover, the viability, T/C (compound 0.1 µM) is 13.1% and 14.8% and 10%. Also, for the setting “compound 0.316 µM”, the viability, T/C is 7.61% and 5.43% and 6.02%. Besides, the viability, T/C (compound 1 µM) is 4.72% and 5.45% and 4.44%. Also, the viability, T/C (compound 3.16 µM) is 4.67% and 5.36% and 4.31%. The viability, T/C (compound 10 µM) was 3.02% and 2.97% and 3.42%.

For `CC1COCCN1c1cc(C2(S(C)(=N)=O)CC2)nc(-c2ccnc3[nH]ccc23)n1` (stereo not given), the half-inhibitory concentration (IC50) was 1080 nM and 775 nM and 990 nM. Further, for the setting “compound 0.0316 µM”, the viability, T/C was 98.7% and 91.8% and 97.2%. Moreover, the viability, T/C (compound 0.1 µM) was 84.2% and 100% and 98.6%. Moreover, the viability, T/C (compound 0.316 µM) was 102% and 104% and 95.6%. In addition, where the note is “compound 1 µM”, the viability, T/C is 52.7% and 36.2% and 49%. Further, the viability, T/C (compound 3.16 µM) is 18.2% and 7.52% and 14.2%. The viability, T/C (compound 10 µM) is 6.83% and 5.23% and 6.65%.

`CCCS(=O)(=O)Nc1ccc(F)c(C(=O)c2c[nH]c3ncc(-c4ccc(Cl)cc4)cc23)c1F`: the IC50 is 6350 nM and 6160 nM and 5690 nM. Under “compound 0.0316 µM”, the viability, T/C is 111% and 99.7% and 103%. The viability, T/C (compound 0.1 µM) was 114% and 101% and 82.2%. Further, the viability, T/C (compound 0.316 µM) was 91.7% and 97.9% and 81.8%. Also, the viability, T/C (compound 1 µM) is 92.4% and 78.4% and 81.4%. Also, the viability, T/C (compound 3.16 µM) is 94.7% and 87.6% and 78.3%. In addition, the viability, T/C (compound 10 µM) is 22.4% and 25.9% and 24.6%.

`CC[C@@]1(O)C(=O)OCc2c1cc1n(c2=O)Cc2cc3c(CN(C)C)c(O)ccc3nc2-1`: the half-maximal inhibitory concentration (IC50) is > 316 nM and 104 nM and 230 nM. Under “compound 0.000999 µM”, the viability, T/C was 105% and 97.5% and 100%. Besides, the viability, T/C (compound 0.00316 µM) was 97.5% and 99.2% and 96.2%. Also, the viability, T/C (compound 0.00999 µM) was 97.4% and 111% and 103%. For the same compound, the viability, T/C (compound 0.0316 µM) is 87.6% and 77.7% and 96.6%. Further, the viability, T/C (compound 0.0999 µM) is 72.4% and 55.3% and 59.9%. Besides, the viability, T/C (compound 0.316 µM) was 50.6% and 42.9% and 46.2%.

Consider `CCc1c2c(nc3ccc(O)cc13)-c1cc3c(c(=O)n1C2)COC(=O)[C@]3(O)CC`, for which the 50% inhibitory concentration (IC50) is 9.82 nM and 7.08 nM and 7.82 nM. The viability, T/C (compound 0.000999 µM) was 88.2% and 83.6% and 97.2%. For the same compound, the viability, T/C (compound 0.00316 µM) was 72.1% and 57.3% and 65.1%. For the same compound, the viability, T/C (compound 0.00999 µM) is 50.2% and 50.4% and 45.2%. The viability, T/C (compound 0.0316 µM) was 30.8% and 29.4% and 34.3%. Also, under “compound 0.0999 µM”, the viability, T/C was 21.3% and 14.5% and 21.4%. Moreover, the viability, T/C (compound 0.316 µM) was 18.9% and 11.2% and 16.2%.
